Like-named read-outs stand apart in the source and are kept apart here.
Columns and labels:
HT29 cells = assay: HT29 (MSS) 7 day viability, CellTiter Glo; assay type: cell-based; details: 7 days, read-out: HT29 (MSS) Viability 7 Day CTGAbs AC50
Experimental: (§1) Compounds were dissolved in DMSO to a concentration of 10 mM. Compounds were then serially diluted in 10 3-fold steps in DMSO using an EVO (Tecan). Plates were then spun down for 1 minute at 1,000 RPM at room temperature.
(§2) The colon carcinoma lines HCT116 (RRID: CVCL_0291) and HT29 (RRID: CVCL_0320) were obtained from ATCC. […] All cells were maintained at 37° C. with 5% CO2 incubator.
(§3) After harvesting, cells were spun down for 5 minutes at 1200 RPM. Cells were resuspended in 10 mL of growth media and counted using Countess (Thermo Fisher). Cell concentrations were adjusted to 50 cells/well for HCT116 and 500 cells/well for HT29. 50 μL of diluted cells were added to compound treated 384 well plates using a 12 channel, 300 uL electronic handheld pipette (Integra). Cell treated plates were placed in 37 C with 5% CO2 incubator for 7 days.
(§4) Afterwards, cells were removed from incubator and equilibrated to room temperature for 15 minutes. 35 uL of CellTiter Glo (Promega #G7573) reagent were added to each well using a 12 channel, 300 uL electronic handheld pipette (Integra). Plates were incubated for 20 minutes at room temperature. Luminescence quantification was performed using Envision (PerkinElmer).
(§5) For data analysis, the assay background signal was determined in wells containing medium, but no cells. Potencies were calculated by linear least squares fit to the four-parameter logistic IC50 equation. The reported IC50 values are the geometrical mean of at least 2 independent replicates.

HCT116 cells = assay: HCT116 (MSI) 7 day viability, CellTiter Glo; assay type: cell-based; details: 7 days, read-out: HCT116 (MSI) Viability 7 Day Abs AC50
Experimental: as §1, §2, §3, §4, §5

[1] = target: Full length WRN protein (aa 2-1432) (Homo sapiens (Human), UniProt Q14191); assay: WRN ATPase ADP-Glo biochemical assay, Assay Format B (100 μM ATP); details: 0.25 nM WRN, 100 nM C6.18 ssDNA, 60 min preincubation, read-out: ATPase ADPGlo AC50 (uM)- Assay Format B
Sequence of Full length WRN protein (aa 2-1432) (Q14191 2-1432): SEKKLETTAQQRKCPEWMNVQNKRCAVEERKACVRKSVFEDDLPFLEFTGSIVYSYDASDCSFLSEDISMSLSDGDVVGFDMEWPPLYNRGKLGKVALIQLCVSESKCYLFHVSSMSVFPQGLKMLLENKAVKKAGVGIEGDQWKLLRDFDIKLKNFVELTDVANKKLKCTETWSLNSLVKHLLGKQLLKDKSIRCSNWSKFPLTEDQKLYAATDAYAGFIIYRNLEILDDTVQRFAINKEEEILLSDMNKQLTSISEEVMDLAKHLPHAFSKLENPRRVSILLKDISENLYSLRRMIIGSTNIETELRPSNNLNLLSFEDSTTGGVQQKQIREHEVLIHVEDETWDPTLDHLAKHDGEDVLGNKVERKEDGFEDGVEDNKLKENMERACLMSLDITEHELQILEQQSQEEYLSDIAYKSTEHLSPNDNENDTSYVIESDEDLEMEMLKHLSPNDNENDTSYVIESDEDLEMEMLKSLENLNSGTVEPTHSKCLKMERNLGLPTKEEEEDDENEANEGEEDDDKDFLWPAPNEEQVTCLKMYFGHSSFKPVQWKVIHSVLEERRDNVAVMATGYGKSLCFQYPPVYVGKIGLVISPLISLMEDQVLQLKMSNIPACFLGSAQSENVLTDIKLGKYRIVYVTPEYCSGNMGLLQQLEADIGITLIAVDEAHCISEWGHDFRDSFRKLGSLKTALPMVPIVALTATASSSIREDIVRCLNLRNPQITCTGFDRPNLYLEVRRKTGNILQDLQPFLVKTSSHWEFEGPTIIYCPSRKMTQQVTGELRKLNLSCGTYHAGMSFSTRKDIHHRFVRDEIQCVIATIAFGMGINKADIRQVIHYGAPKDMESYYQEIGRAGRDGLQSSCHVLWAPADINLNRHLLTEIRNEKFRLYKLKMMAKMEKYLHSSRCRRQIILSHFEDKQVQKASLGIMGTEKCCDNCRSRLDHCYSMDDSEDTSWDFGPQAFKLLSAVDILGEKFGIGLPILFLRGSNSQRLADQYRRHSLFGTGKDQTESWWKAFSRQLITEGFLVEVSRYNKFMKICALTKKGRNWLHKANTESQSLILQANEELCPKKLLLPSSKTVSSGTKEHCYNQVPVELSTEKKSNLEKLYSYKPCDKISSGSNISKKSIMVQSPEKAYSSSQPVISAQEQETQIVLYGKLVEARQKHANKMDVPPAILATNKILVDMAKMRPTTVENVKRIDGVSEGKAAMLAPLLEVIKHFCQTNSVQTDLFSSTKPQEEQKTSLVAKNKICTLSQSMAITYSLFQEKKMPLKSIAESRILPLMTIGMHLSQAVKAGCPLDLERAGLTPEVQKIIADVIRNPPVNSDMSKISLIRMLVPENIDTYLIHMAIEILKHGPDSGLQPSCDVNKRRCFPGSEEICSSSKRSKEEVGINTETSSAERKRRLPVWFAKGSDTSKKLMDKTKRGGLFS

Row | SMILES | AC50 [1] [µM] | AC50 (HT29 cells; Homo sapiens, HT-29, 168 h) [µM] | AC50 (HCT116 cells; Homo sapiens, HCT-116, 168 h) [µM] | AC50 (HT29 cells) [µM] | AC50 (HCT116 cells) [µM]
1 | C=CC(=O)N1CCc2nn(-c3ccc(C4CC4)cc3O)c3c2C(C1)N(C(=O)c1cnc(C(F)(F)F)c(C)c1N)CC3 (stereo not drawn) [Compound 208, 1-(5-(4-amino-5-methyl-6-(trifluoromethyl)nicotinoyl)-2-(4-cyclopropyl-2-hydroxyphenyl)-2,3,4,5,5a,6,8,9-octahydro-7H-1,2,5,7-tetraazabenzo[cd]azulen-7-yl)prop-2-en-1-one] | 0.0015 to 0.005 | > 3 | 0.001 to 0.1 | – | –
2 | C=CC(=O)N1CCc2nn(-c3ccc(C4CC4)cc3O)c3c2C(C1C)N(C(=O)c1cnc(C(F)(F)F)cc1N)CC3 (stereo not drawn) [Compound 221, 1-(5-(4-amino-6-(trifluoromethyl)nicotinoyl)-2-(4-cyclopropyl-2-hydroxyphenyl)-6-methyl-2,3,4,5,5a,6,8,9-octahydro-7H-1,2,5,7-tetraazabenzo[cd]azulen-7-yl)prop-2-en-1-one] | 0.005 to 0.015 | > 3 | 0.001 to 0.1 | – | –
3 | C=CC(=O)N1CCc2nn(-c3ccc(C4CC4)cc3O)c3c2C(C1)N(C(=O)c1cnc(SC)c(F)c1N)CC3 (stereo not drawn) [Compound 223, 1-(5-(4-amino-5-fluoro-6-(methylthio)nicotinoyl)-2-(4-cyclopropyl-2-hydroxyphenyl)-2,3,4,5,5a,6,8,9-octahydro-7H-1,2,5,7-tetraazabenzo[cd]azulen-7-yl)prop-2-en-1-one] | 0.0015 to 0.005 | > 3 | 0.001 to 0.1 | – | –
4 | C=CC(=O)N1CCc2nn(-c3ccc(C4CC4)cc3O)c3c2C(C1)N(C(=O)c1nnc(Br)cc1N)CC3 (stereo not drawn) [Compound 228, 1-(5-(4-amino-6-bromopyridazine-3-carbonyl)-2-(4-cyclopropyl-2-hydroxyphenyl)-2,3,4,5,5a,6,8,9-octahydro-7H-1,2,5,7-tetraazabenzo[cd]azulen-7-yl)prop-2-en-1-one] | 0.0015 to 0.005 | > 3 | 0.001 to 0.1 | – | –

Now from value to compound, other results behind:

Row | AC50 [1] [µM] | SMILES | AC50 (HT29 cells; Homo sapiens, HT-29, 168 h) [µM] | AC50 (HCT116 cells; Homo sapiens, HCT-116, 168 h) [µM] | AC50 (HT29 cells) [µM] | AC50 (HCT116 cells) [µM]
5 | 0.005 to 0.015 | C=CC(=O)N1CC(OC2CN(C(C)=O)C2)c2nn(-c3ccc(C4CCC4)cc3)c3c2C(C1)N(C(=O)c1ccc(C(F)(F)F)nc1)CC3 (stereo not drawn) [Compound 205, 1-(9-((1-acetylazetidin-3-yl)oxy)-2-(4-cyclobutylphenyl)-5-(6-(trifluoromethyl)nicotinoyl)-2,3,4,5,5a,6,8,9-octahydro-7H-1,2,5,7-tetraazabenzo[cd]azulen-7-yl)prop-2-en-1-one] | > 3 | 0.001 to 0.1 | – | –
6 | 0.0015 to 0.005 | C=CC(=O)N1CCc2nn(-c3ccc(C4CC4)cc3O)c3c2C(C1)N(C(=O)c1cnc(C(F)(F)F)c(OC)c1N)CC3 (stereo not drawn) [Compound 216, 1-(5-(4-amino-5-methoxy-6-(trifluoromethyl)nicotinoyl)-2-(4-cyclopropyl-2-hydroxyphenyl)-2,3,4,5,5a,6,8,9-octahydro-7H-1,2,5,7-tetraazabenzo[cd]azulen-7-yl)prop-2-en-1-one] | – | – | > 3 | 0.001 to 0.1
7 | 0.005 to 0.015 | C=CC(=O)N1CCc2nn(-c3ccc(C4CC4)cc3)c3c2C(C1)N(C(=O)c1cnc(OC(F)F)cc1N)CC3 (stereo not drawn) [Compound 177, 1-(5-(4-amino-6-(difluoromethoxy)nicotinoyl)-2-(4-cyclopropylphenyl)-2,3,4,5,5a,6,8,9-octahydro-7H-1,2,5,7-tetraazabenzo[cd]azulen-7-yl)prop-2-en-1-one] | > 3 | 0.001 to 0.1 | – | –
8 | 0.005 to 0.015 | C=CC(=O)N1CCc2nn(-c3ccc(C4CCC4)cc3)c3c2C(C1)N(C(=O)c1ccc2c(Cl)ncn2c1)CC3 (stereo not drawn) [Compound 236, 1-(5-(1-chloroimidazo[1,5-a]pyridine-6-carbonyl)-2-(4-cyclobutylphenyl)-2,3,4,5,5a,6,8,9-octahydro-7H-1,2,5,7-tetraazabenzo[cd]azulen-7-yl)prop-2-en-1-one] | > 3 | 0.001 to 0.1 | – | –
9 | 0.005 to 0.015 | C=CC(=O)N1CCc2nn(-c3ccc(C(C)C)cc3O)c3c2C(C1)N(C(=O)c1ccc(C(F)(F)F)nc1N)CC3 (stereo not drawn) [Compound 173, 1-(5-(2-amino-6-(trifluoromethyl)nicotinoyl)-2-(2-hydroxy-4-isopropylphenyl)-2,3,4,5,5a,6,8,9-octahydro-7H-1,2,5,7-tetraazabenzo[cd]azulen-7-yl)prop-2-en-1-one] | > 3 | 0.001 to 0.1 | – | –

— US20250346600A1, “TRICYCLIC DERIVATIVES AND RELATED USES” (MOMA Therapeutics, Inc., priority 2023, published 2025)
